From patent publication US20250032524A1, “BROAD SPECTRUM AMINOGLYCOSIDES AND USES THEREOF” (REVAGENIX, INC., priority 2022, published 2025)
Where two headings read alike, the source gives them in different places.

Tests used:
Type in all cases: cell-based
[1] = test system: P. aeruginosa; test: MIC broth microdilution (CLSI); settings: Pseudomonas aeruginosa
Procedure: (§1) Minimum inhibitory concentrations for representative example compounds herein were determined by a broth microdilution method in accordance with the Clinical and Laboratory Standards Institute (CLSI) guidelines. In brief, organism suspensions were adjusted to a 0.5 McFarland standard to yield a final inoculum between 3×10^5 and 7×10^5 colony-forming units (CFU)/mL. The inoculum was prepared by suspension of a colony from an agar plate that was prepared the previous day. Compound dilutions and inoculum were prepared in sterile, cation adjusted Mueller-Hinton Broth (Beckton Dickinson).
(§2) Bacteria were suspended in sterile saline and added to each assay plate to obtain a final concentration of 5×10^5 CFU/mL. An inoculum volume of 100 μL was added to wells containing 100 μL of broth with 2-fold serial dilutions of the test compound. All inoculated microdilution trays were incubated in ambient air at 35° C. for 18-24 hours. Following incubation, the lowest concentration of the compound that prevented visible growth (OD 600 nm<0.05) is recorded was the MIC. […] Performance of the assay was monitored by the use of laboratory quality-control strains and a standard compound with a defined MIC spectrum (neomycin), in accordance with CLSI guidelines.

[2] = test system: A. baumannii; test: MIC broth microdilution (CLSI); settings: Acinetobacter baumannii
Procedure: as §1, §2

[3] = test system: E. coli; test: MIC broth microdilution (CLSI); settings: Escherichia coli
Procedure: as §1, §2

[4] = test system: Methicillin-resistant S. aureus (MRSA); test: Antibacterial surveillance of clinical isolates (MIC50/90); settings: 30 isolates
Procedure: as §1, §2
(§3) Several compounds of the disclosure (Compound 1, 2, and 3) were further evaluated against several hundred bacterial isolates (isolated in the United States and Europe, 1:1) selected from the SENTRY Antimicrobial Surveillance Program (JMI Laboratories, North Liberty, Iowa). The set of clinical isolates included 300 randomly selected Enterobacterales, 103 randomly selected P. aeruginosa, 100 randomly selected A. baumannii-calcoaceticus, 20 randomly selected Methicillin-sensitive S. aureus (MSSA), and 30 randomly selected Methicillin-resistant S. aureus (MRSA). In addition, 101 Enterobacterales and 50 P. aeruginosa isolates with genetically defined mechanisms of aminoglycoside resistance were included. The MIC values at which ≥50% (MIC50) and ≥90% (MIC90) of isolates within a given set are inhibited were determined for each compound against each set of organisms.

[5] = test system: P. aeruginosa; test: as above; settings: 103 isolates
Procedure: as §1, §2, §3

[6] = test system: A. baumannii-calcoaceticus; test: as above; settings: 100 isolates
Procedure: as §1, §2, §3

[7] = test system: Methicillin-sensitive S. aureus (MSSA); test: as above; settings: 20 isolates
Procedure: as §1, §2, §3

[8] = test system: AG-resistant Enterobacterales; test: as above; settings: 101 isolates with defined aminoglycoside resistance
Procedure: as §1, §2, §3

[9] = test system: AG-resistant P. aeruginosa; test: as above; settings: 50 isolates with defined aminoglycoside resistance
Procedure: as §1, §2, §3

[10] = read-out: Activity (MIC), strain NPAE0006, Efflux KO, Aph(3')-IIb
[11] = read-out: Activity (MIC), strain NPAE0010, MexXY over-expressed, Aph(3')-IIb
[12] = strain NPAE0001, WT Aph(3')-IIb, QC, read-out: Activity (MIC)
[13] = strain NPAE0002, WT Aph(3')-IIb, read-out: Activity (MIC)
[14] = strain NPAE0359, aph(3')-IIb KO (tetR), read-out: Activity (MIC)
[15] = read-out: Activity (MIC), strain NABA0007, ΔadeJK efflux
[16] = strain NABA0006, WT parent, read-out: Activity (MIC)
[17] = strain NABA0020, AME negative strain, read-out: Activity (MIC)
[18] = read-out: Activity (MIC), strain NECO0003, ΔtolC
[19] = read-out: Activity (MIC), strain NECO0245, ArmA
[20] = strain NECO0001, WT QC, read-out: Activity (MIC)
[21] = strain NECO0002, WT, read-out: Activity (MIC)
[22] = strain NECO0243, empty vector, read-out: Activity (MIC)
[23] = strain NECO0244, AAC(6')-Ib, read-out: Activity (MIC)
[24] = strain NECO0289, APH(3')-Ia, read-out: Activity (MIC)
[25] = strain NECO0302, AAC(3)-IIa, read-out: Activity (MIC)
[26] = strain NECO0350, AAC(2')-I, read-out: Activity (MIC)
[27] = strain NECO0359, ANT(4')-Ia, read-out: Activity (MIC)

Compound: C[C@H](N)[C@@H]1CC[C@@H](N)[C@@H](O[C@@H]2[C@@H](N)[C@H](O)[C@@H](N)[C@H](O)[C@H]2O[C@@H]2O[C@H](CO)[C@@H](O[C@H]3O[C@@H](CN)[C@@H](O)[C@H](O)[C@H]3N)[C@H]2O)O1 [Compound 8, (2S,3S,4R,5R,6R)-5-amino-2-(aminomethyl)-6-(((2R,3S,4R,5S)-5-(((1R,2R,3S,4R,5R,6S)-3,5-diamino-2-(((2R,3R,6S)-3-amino-6-((S)-1-aminoethyl)tetrahydro-2H-pyran-2-yl)oxy)-4,6-dihydroxycyclohexyl)oxy)-4-hydroxy-2-(hydroxymethyl)tetrahydrofuran-3-yl)oxy)tetrahydro-2H-pyran-3,4-diol]
- MIC [1, 10]: < 16 µg/mL
- MIC [1, 11]: < 16 µg/mL
- MIC [1, 12]: < 16 µg/mL
- MIC [1, 13]: < 16 µg/mL
- MIC [1, 14]: < 16 µg/mL
- MIC [2, 15]: < 16 µg/mL
- MIC [2, 16]: < 16 µg/mL
- MIC [2, 17]: > 16 µg/mL
- MIC [3, 18]: < 16 µg/mL
- MIC [3, 19]: < 16 µg/mL
- MIC [3, 20]: < 16 µg/mL
- MIC [3, 21]: < 16 µg/mL
- MIC [3, 22]: < 16 µg/mL
- MIC [3, 23]: < 16 µg/mL
- MIC [3, 24]: > 16 µg/mL
- MIC [3, 25]: < 16 µg/mL
- MIC [3, 26]: < 16 µg/mL
- MIC [3, 27]: < 16 µg/mL

Compound: CN[C@@H](C)[C@@H]1CC[C@@H](N)[C@@H](O[C@@H]2[C@@H](N)[C@H](O)[C@@H](NC(=O)[C@@H](O)[C@H](F)CN)[C@H](O)[C@H]2O[C@@H]2O[C@H](CO)[C@@H](O[C@H]3O[C@@H](CN)[C@@H](O)[C@H](O)[C@H]3N)[C@H]2O)O1 [Compound 7, (2R,3R)-4-amino-N-((1R,2S,3S,4R,5R,6S)-3-amino-4-(((2R,3R,6S)-3-amino-6-((S)-1-(methylamino)ethyl)tetrahydro-2H-pyran-2-yl)oxy)-5-(((2S,3R,4S,5R)-4-(((2R,3R,4R,5S,6S)-3-amino-6-(aminomethyl)-4,5-dihydroxytetrahydro-2H-pyran-2-yl)oxy)-3-hydroxy-5-(hydroxymethyl)tetrahydrofuran-2-yl)oxy)-2,6-dihydroxycyclohexyl)-3-fluoro-2-hydroxybutanamide]
- MIC [1, 10]: < 16 µg/mL
- MIC [1, 11]: > 16 µg/mL
- MIC [1, 12]: < 16 µg/mL
- MIC [1, 13]: < 16 µg/mL
- MIC [1, 14]: < 16 µg/mL
- MIC [2, 15]: < 16 µg/mL
- MIC [2, 16]: < 16 µg/mL
- MIC [2, 17]: < 16 µg/mL
- MIC [3, 18]: < 16 µg/mL
- MIC [3, 19]: < 16 µg/mL
- MIC [3, 20]: < 16 µg/mL
- MIC [3, 21]: < 16 µg/mL
- MIC [3, 22]: < 16 µg/mL
- MIC [3, 23]: < 16 µg/mL
- MIC [3, 24]: > 16 µg/mL
- MIC [3, 25]: < 16 µg/mL
- MIC [3, 26]: < 16 µg/mL
- MIC [3, 27]: < 16 µg/mL

Compound: C[C@@H](N)[C@@H]1CC[C@@H](N)[C@@H](O[C@@H]2[C@@H](N)[C@H](O)[C@@H](NC(=O)[C@@H](O)CCN)[C@H](O)[C@H]2O[C@@H]2O[C@H](CO)[C@@H](O[C@H]3O[C@@H](CN)[C@@H](O)[C@H](O)[C@H]3N)[C@H]2O)O1 [Compound 5, (S)-4-Amino-N-((1R,2S,3S,4R,5R,6S)-3-Amino-4-(((2R,3R,6S)-3-Amino-6-((R)-1-Aminoethyl)Tetrahydro-2H-Pyran-2-Yl)Oxy)-5-(((2S,3R,4S,5R)-4-(((2R,3R,4R,5S,6S)-3-Amino-6-(Aminomethyl)-4,5-Dihydroxytetrahydro-2H-Pyran-2-Yl)Oxy)-3-Hydroxy-5-(Hydroxymethyl)Tetrahydrofuran-2-Yl)Oxy)-2,6-Dihydroxycyclohexyl)-2-Hydroxybutanamide]
- MIC [1, 10]: < 16 µg/mL
- MIC [1, 11]: < 16 µg/mL
- MIC [1, 12]: < 16 µg/mL
- MIC [1, 13]: < 16 µg/mL
- MIC [1, 14]: < 16 µg/mL
- MIC [2, 15]: < 16 µg/mL
- MIC [2, 16]: < 16 µg/mL
- MIC [2, 17]: < 16 µg/mL
- MIC [3, 18]: < 16 µg/mL
- MIC [3, 19]: < 16 µg/mL
- MIC [3, 20]: < 16 µg/mL
- MIC [3, 21]: < 16 µg/mL
- MIC [3, 22]: < 16 µg/mL
- MIC [3, 23]: < 16 µg/mL
- MIC [3, 24]: < 16 µg/mL
- MIC [3, 25]: < 16 µg/mL
- MIC [3, 26]: < 16 µg/mL
- MIC [3, 27]: < 16 µg/mL

Compound: gentamicin [reference compound]
- MIC50 [4]: +/+ (+ = MIC50 or MIC90 ≤ 16 μg/mL)
- MIC90 [4]: +/+ (+ = MIC50 or MIC90 ≤ 16 μg/mL)
- MIC50 [5]: +/+ (+ = MIC50 or MIC90 ≤ 16 μg/mL)
- MIC90 [5]: +/+ (+ = MIC50 or MIC90 ≤ 16 μg/mL)
- MIC50 [6]: + (+ = MIC50 or MIC90 ≤ 16 μg/mL)
- MIC90 [6]: − (− = MIC50 or MIC90 > 16 μg/mL)
- MIC50 [7]: +/+ (+ = MIC50 or MIC90 ≤ 16 μg/mL)
- MIC90 [7]: +/+ (+ = MIC50 or MIC90 ≤ 16 μg/mL)
- MIC50 [8]: −/− (− = MIC50 or MIC90 > 16 μg/mL)
- MIC90 [8]: −/− (− = MIC50 or MIC90 > 16 μg/mL)
- MIC50 [9]: + (+ = MIC50 or MIC90 ≤ 16 μg/mL)
- MIC90 [9]: − (− = MIC50 or MIC90 > 16 μg/mL)

Compound: C[C@@H](N)[C@@H]1CC[C@@H](N)[C@@H](O[C@@H]2[C@@H](N)[C@H](O)[C@@H](NC(=O)[C@@H](O)[C@H](F)CN)[C@H](O)[C@H]2O[C@@H]2O[C@H](CO)[C@@H](O[C@H]3O[C@@H](CN)[C@@H](O)[C@H](O)[C@H]3N)[C@H]2O)O1 [Compound 4, (2R,3R)-4-amino-N-((1R,2S,3S,4R,5R,6S)-3-amino-4-(((2R,3R,6S)-3-amino-6-((R)-1-aminoethyl)tetrahydro-2H-pyran-2-yl)oxy)-5-(((2S,3R,4S,5R)-4-(((2R,3R,4R,5S,6S)-3-amino-6-(aminomethyl)-4,5-dihydroxytetrahydro-2H-pyran-2-yl)oxy)-3-hydroxy-5-(hydroxymethyl)tetrahydrofuran-2-yl)oxy)-2,6-dihydroxycyclohexyl)-3-fluoro-2-hydroxybutanamide]
- MIC [1, 10]: < 16 µg/mL
- MIC [1, 11]: < 16 µg/mL
- MIC [1, 12]: < 16 µg/mL
- MIC [1, 13]: < 16 µg/mL
- MIC [1, 14]: < 16 µg/mL
- MIC [2, 15]: < 16 µg/mL
- MIC [2, 16]: < 16 µg/mL
- MIC [2, 17]: < 16 µg/mL
- MIC [3, 18]: < 16 µg/mL
- MIC [3, 19]: < 16 µg/mL
- MIC [3, 20]: < 16 µg/mL
- MIC [3, 21]: < 16 µg/mL
- MIC [3, 22]: < 16 µg/mL
- MIC [3, 23]: < 16 µg/mL
- MIC [3, 24]: < 16 µg/mL
- MIC [3, 25]: < 16 µg/mL
- MIC [3, 26]: < 16 µg/mL
- MIC [3, 27]: < 16 µg/mL
